Source: EP1984353B1, “AURORA KINASE MODULATORS AND METHOD OF USE” (Amgen, Inc, priority 2006, dated 2007)
Where two headings read alike, the source gives them in different places.

Columns and labels:
[1] = target: T1, AuroraA-TPX2 (Homo sapiens, UniProt O14965); assay: AuroraA-TPX2 Homogeneous Time Resolved Fluorescent (HTRF) kinase assay; assay type: biochemical; conditions: average, read-out: AurA/TP X2_ IC50_IP (Avg)
T1 construct: 20 µL of AuroraA-TPX2 KD GST; GST
T1 sequence (O14965 133-383 limits assumed): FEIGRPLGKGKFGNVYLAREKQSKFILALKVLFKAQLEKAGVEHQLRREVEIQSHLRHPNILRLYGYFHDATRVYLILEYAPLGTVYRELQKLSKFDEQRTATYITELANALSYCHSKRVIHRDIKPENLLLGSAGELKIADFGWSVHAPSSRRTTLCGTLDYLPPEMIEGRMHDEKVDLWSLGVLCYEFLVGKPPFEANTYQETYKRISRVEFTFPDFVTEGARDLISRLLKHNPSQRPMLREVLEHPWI
T1 sequence (Q9ULW0 1-43 partner limits assumed): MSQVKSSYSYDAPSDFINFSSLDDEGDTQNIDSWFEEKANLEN
How it was run: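 Aurora-A/TPX2 phosphorylates biotinylated PLK peptide (about 1 µM) with ATP for about 120 min in 60 mM HEPES pH 7.5, 10 mM MgCl2, 2 mM DTT. EDTA quench, overnight equilibration with Eu-anti-phosphoPLK antibody and SA-APC; HTRF read at 615/655 nm after 320 nm excitation.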

[2] = target: T2, AuroraB (Homo sapiens, UniProt Q96GD4); assay: AuroraB Homogeneous Time Resolved Fluorescent (HTRF) kinase assay; assay type: biochemical; conditions: average, read-out: AurB_ _IC50_IP (Avg)
T2 construct: 20 µL of AuroraB FL His; His
T2 sequence (Q96GD4 whole entry): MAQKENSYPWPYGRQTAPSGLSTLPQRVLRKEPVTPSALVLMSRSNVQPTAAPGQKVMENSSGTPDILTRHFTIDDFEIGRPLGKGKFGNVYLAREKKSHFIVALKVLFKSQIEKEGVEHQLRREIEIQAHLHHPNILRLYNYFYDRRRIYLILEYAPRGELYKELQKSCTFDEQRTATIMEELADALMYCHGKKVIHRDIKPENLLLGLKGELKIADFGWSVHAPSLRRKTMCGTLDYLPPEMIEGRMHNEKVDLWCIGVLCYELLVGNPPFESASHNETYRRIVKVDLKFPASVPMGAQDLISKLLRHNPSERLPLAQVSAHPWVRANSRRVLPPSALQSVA
How it was run: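 Full-length His-tagged AuroraB (400 pM) phosphorylates 0.1 µM biotinylated Histone H3 with 23 µM ATP (Km(app)) in HEPES pH 7.5 with Mg/Mn, about 90 min. EDTA-quenched; Eu-anti-phosphoHistoneH3 and SA-APC HTRF, 655/615 nm ratio as phosphorylation.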

[3] = given as numbers, unit inferred

Row | IC50 ([1]; given as class symbols) [nM] | IC50 ([2]; given as class symbols) [nM] | IC50 [1, 3] [nM] | IC50 [2, 3] [nM] | SMILES
1 | ≤ 100 | ≤ 100 | – | – | COc1cccc(-c2nnc(Nc3ccc(Oc4ncccc4-c4c[nH]nc4N)cc3)c3ccccc23)c1 [compound 317, N-(4-((3-(3-amino-1H-pyrazol-4-yl)-2-pyridinyl)oxy)phenyl)-4-(3-(methyloxy)phenyl)-1-phthalazinamine]
2 | – | – | 23.8 | 5.6 | CS(=O)(=O)c1cccc(-c2nnc(Nc3ccc(Oc4ncccc4-c4ccnc(N)n4)nc3)c3ccccc23)c1 [compound 318, N-(6-((3-(2-amino-4-pyrimidinyl)-2-pyridinyl)oxy)-3-pyridinyl)-4-(3-(methylsulfonyl)phenyl)-1-phthalazinamine]
3 | ≤ 100 | ≤ 100 | – | – | COc1ccc(-c2nnc(Nc3ccc(Oc4ncccc4-c4ccnc(N)n4)nc3)c3ccccc23)cc1 [compound 319, N-(6-((3-(2-amino-4-pyrimidinyl)-2-pyridinyl)oxy)-3-pyridinyl)-4-(4-(methyloxy)phenyl)-1-phthalazinamine]
4 | ≤ 100 | ≤ 100 | – | – | COc1ccc(-c2nnc(Nc3ccc(Oc4ncccc4-c4ccnc(N)n4)cc3)c3ccccc23)cc1 [compound 320, N-(4-((3-(2-amino-4-pyrimidinyl)-2-pyridinyl)oxy)phenyl)-4-(4-(methyloxy)phenyl)-1-phthalazinamine]
5 | ≤ 100 | ≤ 100 | – | – | CCOc1ccc(-c2nnc(Nc3ccc(Oc4ncccc4-c4ccnc(N)n4)cc3)c3ccccc23)cc1 [compound 321, N-(4-((3-(2-amino-4-pyrimidinyl)-2-pyridinyl)oxy)phenyl)-4-(4-(ethyloxy)phenyl)-1-phthalazinamine]
6 | ≤ 100 | ≤ 100 | – | – | CCOc1ccccc1-c1nnc(Nc2ccc(Oc3ncccc3-c3ccnc(N)n3)cc2)c2ccccc12 [compound 322, N-(4-((3-(2-amino-4-pyrimidinyl)-2-pyridinyl)oxy)phenyl)-4-(2-(ethyloxy)phenyl)-1-phthalazinamine]
7 | 100 to 500 | ≤ 100 | – | – | CN1CCN(CCCNc2nccc(-c3cccnc3Oc3ccc(Nc4nnc(-c5ccccn5)c5ccccc45)cc3)n2)CC1 [compound 323, N-(4-((3-(2-((3-(4-methyl-1-piperazinyl)propyl)amino)-4-pyrimidinyl)-2-pyridinyl)oxy)phenyl)-4-(2-pyridinyl)-1-phthalazinamine]
8 | ≤ 100 | ≤ 100 | – | – | CN(C)C1CCN(CCCNc2nccc(-c3cccnc3Oc3ccc(Nc4nnc(-c5ccccc5)c5ccccc45)cc3)n2)C1 (stereo not drawn) [compound 324, N-(4-((3-(2-((3-(3-(dimethylamino)-1-pyrrolidinyl)propyl)amino)-4-pyrimidinyl)-2-pyridinyl)oxy)phenyl)-4-phenyl-1-phthalazinamine]
9 | ≤ 100 | ≤ 100 | – | – | CC1CN(CCCNc2nccc(-c3cccnc3Oc3ccc(Nc4nnc(-c5ccccc5)c5ccccc45)cc3)n2)CC(C)O1 (stereo not drawn) [compound 326, N-(4-((3-(2-((3-(2,6-dimethyl-4-morpholinyl)propyl)amino)-4-pyrimidinyl)-2-pyridinyl)oxy)phenyl)-4-phenyl-1-phthalazinamine]
10 | 100 to 500 | 500 to 2500 | – | – | O=C(O)CCNc1nccc(-c2cccnc2Oc2ccc(Nc3nnc(-c4ccccc4)c4ccccc34)cc2)n1 [compound 327, N-(4-(2-((4-((4-phenyl-1-phthalazinyl)amino)phenyl)oxy)-3-pyridinyl)-2-pyrimidinyl)-beta-alanine]
11 | – | – | 65 | 4.3 | C[C@H]1CN(CCCNc2nccc(-c3cccnc3Oc3ccc(Nc4nnc(-c5ccccc5)c5ccccc45)cc3)n2)[C@@H](C)CO1 [compound 328, N-(4-((3-(2-((3-((2S,5S)-2,5-dimethyl-4-morpholinyl)propyl)amino)-4-pyrimidinyl)-2-pyridinyl)oxy)phenyl)-4-phenyl-1-phthalazinamine]
12 | 100 to 500 | ≤ 100 | – | – | Nc1nccc(-c2cccnc2Oc2ccc(Nc3nnc(-c4cccc(COP(=O)(O)O)c4)c4ccccc34)cc2)n1 [compound 351, (3-(4-((4-((3-(2-amino-4-pyrimidinyl)-2-pyrldinyl)oxy)phenyl)amino)-1-phthalazinyl)pbenyl)methyl dihydrogen phosphate]
13 | ≤ 100 | ≤ 100 | – | – | Nc1nccc(-c2cccnc2Oc2ccc(Nc3nnc(N4CCCC(CO)C4)c4ccccc34)cc2)n1 (stereo not drawn) [compound 352, (1-(4-((4-((3-(2-amino-4-pyrimidinyl)-2-pyridinyl)oxy)phenyl)amino)-1-phthalazinyl)-3-piperidinyl)methanol]
14 | – | – | 87.4 | 25.9 | Nc1nccc(-c2cccnc2Oc2ccc(Nc3nnc(N4CCCC(O)C4)c4ccccc34)cc2)n1 (stereo not drawn) [compound 354, 1-(4-((4-((3-(2-amino-4-pyrimidinyl)-2-pyridinyl)oxy)phenyl)amino)-1-phthalazinyl)-3-piperidinol]
15 | ≤ 100 | ≤ 100 | – | – | Nc1nccc(-c2cccnc2Oc2ccc(Nc3nnc(-c4cccc(CCO)c4)c4ccccc34)cc2)n1 [compound 355, 2-(3-(4-((4-((3-(2-amino-4-pyrimidinyl)-2-pyridinyl)oxy)phenyl)amino)-1-phthalazinyl)phenyl)ethanol]
16 | ≤ 100 | ≤ 100 | – | – | Nc1nccc(-c2cccnc2Oc2ccc(Nc3nnc(-c4ccccn4)c4ccccc34)cc2)n1 [compound 356, N-(4-((3-(2-amino-4-pyrimidinyl)-2-pyridinyl)oxy)phenyl)-4-(2-pyridinyl)-1-phthalazinamine]
17 | ≤ 100 | ≤ 100 | – | – | CC(C)(O)c1cccc(-c2nnc(Nc3ccc(Oc4ncccc4-c4ccnc(N)n4)cc3)c3ccccc23)c1 [compound 357, 2-(3-(4-((4-((3-(2-amino-4-pyrimidinyl)-2-pyridinyl)oxy)phenyl)amino)-1-phthalazinyl)phenyl)-2-propanol]
18 | 500 to 2500 | ≤ 100 | – | – | Nc1nccc(-c2cccnc2Oc2ccc(Nc3nnc(N4CCC(O)CC4)c4ccccc34)cc2)n1 [compound 358, 1-(4-((4-((3-(2-amino-4-pyrimidinyl)-2-pyridinyl)oxy)phenyl)amino)-1-phthalazinyl)-4-piperidinol]
19 | ≤ 100 | ≤ 100 | – | – | Cc1csc(-c2nnc(Nc3ccc(Oc4ncccc4-c4ccnc(NCCCO)n4)cc3)c3ccccc23)n1 [compound 359, 3-((4-(2-((4-((4-(4-methyl-1,3-thiazol-2-yl)-1-phthalazinyl)amino)phenyl)oxy)-3-pyridinyl)-2-pyrimidinyl)amino)-1-propanol]
20 | ≤ 100 | ≤ 100 | – | – | C[C@H](O)c1cccc(-c2nnc(Nc3ccc(Oc4ncccc4-c4ccnc(N)n4)cc3)c3ccccc23)c1 [compound 360, (1S)-1-(3-(4-((4-((3-(2-amino-4-pyrimidinyl)-2-pyridinyl)oxy)phenyl)amino)-1-phthalazinyl)phenyl)ethanol]
21 | ≤ 100 | ≤ 100 | – | – | C[C@@H](O)c1cccc(-c2nnc(Nc3ccc(Oc4ncccc4-c4ccnc(N)n4)cc3)c3ccccc23)c1 [compound 361, (1R)-1-(3-(4-((4-((3-(2-amino-4-pyrimidinyl)-2-pyridinyl)oxy)phenyl)amino)-1-phthalazinyl)phenyl)ethanol]
22 | ≤ 100 | ≤ 100 | – | – | Nc1nccc(-c2cccnc2Oc2ccc(Nc3nnc(-c4cccc(CCCOP(=O)(O)O)c4)c4ccccc34)cc2)n1 [compound 362, 3-(3-(4-((4-((3-(2-amino-4-pyrimidinyl)-2-pyridinyl)oxy)phenyl)amino)-1-phthalazinyl)phenyl)propyl dihydrogen phosphate]
23 | ≤ 100 | ≤ 100 | – | – | Nc1nccc(-c2cccnc2Oc2ccc(Nc3nnc(-c4cccc(O)c4)c4ccccc34)cn2)n1 [compound 363, 3-(4-((6-((3-(2-amino-4-pyrimidinyl)-2-pyridinyl)oxy)-3-pyridinyl)amino)-1-phthalazinyl)phenol]
24 | 100 to 500 | ≤ 100 | – | – | Nc1nccc(-c2cccnc2Oc2ccc(Nc3nnc(-c4ccccc4O)c4ccccc34)cc2)n1 [compound 364, 2-(4-((4-((3-(2-amino-4-pyrimidinyl)-2-pyridinyl)oxy)phenyl)amino)-1-phthalazinyl)phenol]
25 | – | – | 27.6 | 11.3 | Nc1nccc(-c2cccnc2Oc2ccc(Nc3nnc(-c4ccccc4O)c4ccccc34)cn2)n1 [compound 365, 2-(4-((6-((3-(2-amino-4-pyrimidinyl)-2-pyridinyl)oxy)-3-pyridinyl)amino)-1-phthalazinyl)phenol]
26 | 100 to 500 | 100 to 500 | – | – | Nc1nccc(-c2cccnc2Oc2ccc(Nc3nnc(-c4cccc(OP(=O)(O)O)c4)c4ccccc34)cc2)n1 [compound 366, 3-(4-((4-((3-(2-amino-4-pyrimidinyl)-2-pyridinyl)oxy)phenyl)amino)-1-phthalazinyl)phenyl dihydrogen phosphate]
27 | ≤ 100 | ≤ 100 | – | – | OCCCNc1nccc(-c2cccnc2Oc2ccc(Nc3nnc(-c4ccccc4)c4ccccc34)cn2)n1 [compound 367, 3-((4-(2-((5-((4-phenyl-1-phthalazinyl)amino)-2-pyridinyl)oxy)-3-pyridinyl)-2-pyrimidinyl)amino)-1-propanol]
